How the values were obtained:
Assay type in all cases: in vivo
[1] = tested on: Poa annua (POAAN); assay: Herbicidal post-emergence action (Table B3); details: rated visually after about 3 weeks, 100% = plants have died, 0% = like control plants
Protocol: (§1) Seeds of mono- and dicotyledonous weed plants were placed in plastic pots in sandy loam soil (doubly sown with in each case one species of mono- or dicotyledonous weed plants per pot), covered with soil and cultivated in a greenhouse under controlled growth conditions. 2 to 3 weeks after sowing, the test plants were treated at the one-leaf stage. The compounds of the invention, formulated in the form of wettable powders (WP) or as emulsion concentrates (EC), were applied onto the green parts of the plants as aqueous suspension or emulsion with addition of 0.5% additive at a water application rate of 600 liters per hectare (converted). After the test plants had been kept in the greenhouse under optimum growth conditions for about 3 weeks, the activity of the preparations was rated visually in comparison to untreated controls. For example, 100% activity=the plants have died, 0% activity=like control plants. Tables B1 to B12 below show the effects of selected compounds of the general formula (I) according to Table 1 on various harmful plants and an application rate corresponding to 1280 or 320 g/ha, which were obtained by the experimental procedure mentioned above.

[2] = tested on: Amaranthus retroflexus (AMARE); assay: Herbicidal post-emergence action (Table B6); details: visual rating about 3 weeks after treatment, 100% = plants have died, 0% = like control plants
Protocol: as §1

[3] = tested on: Stellaria media (STEME); assay: Herbicidal post-emergence action (Table B8); details: visual rating about 3 weeks after treatment, 100% = plants have died, 0% = like control plants
Protocol: as §1

[4] = tested on: Poa annua (POAAN); assay: Herbicidal pre-emergence action, test C (Table C3); details: visual scoring after about 3 weeks, 100% = plants have died, 0% = like control plants
Description: (§2) Seeds of mono- and dicotyledonous weed plants were placed in plastic pots in sandy loam soil (doubly sown with one species each of mono- or dicotyledonous weed plants per pot) and covered with soil. The compounds of the invention, formulated in the form of wettable powders (WP) or as emulsion concentrates (EC), were then applied onto the surface of the covering soil as aqueous suspension or emulsion with addition of 0.5% additive at a water application rate of 600 liters per hectare (converted). After the treatment, the pots were placed in a greenhouse and kept under good growth conditions for the test plants. After about 3 weeks, the effect of the preparations was scored visually in comparison with untreated controls as percentages. For example, 100% activity=the plants have died, 0% activity=like control plants. Tables C1 to C12 below show the effects of selected compounds of the general formula (I) according to Table 1 on various harmful plants and an application rate corresponding to 1280 or 320 g/ha, which were obtained by the experimental procedure mentioned above.

[5] = tested on: Setaria viridis (SETVI); assay: Herbicidal pre-emergence action, test C (Table C4); details: visual scoring after about 3 weeks, 100% = plants have died, 0% = like control plants
Description: as §2

[6] = tested on: Abutilon theophrasti (ABUTH); assay: Herbicidal pre-emergence action, test C (Table C5); details: visual scoring after about 3 weeks, 100% = plants have died, 0% = like control plants
Description: as §2

[7] = tested on: Amaranthus retroflexus (AMARE); assay: Herbicidal pre-emergence action, test C (Table C6); details: visual scoring after about 3 weeks, 100% = plants have died, 0% = like control plants
Description: as §2

[8] = tested on: Matricaria inodora (MATIN); assay: Herbicidal pre-emergence action, test C (Table C7); details: dosage 1280 g/ha; visual scoring after about 3 weeks; 100% = plants have died, 0% = like control plants
Description: as §2

[9] = tested on: Stellaria media (STEME); assay: Herbicidal pre-emergence action, test C (Table C8); details: visual scoring after about 3 weeks, 100% = plants have died, 0% = like control plants
Description: as §2

[10] = tested on: harmful plants ABUTH, AMARE, ECHCG, LOLRI, MATIN, POAAN, SETVI, STEME, ALOMY, DIGSA, KCHSC and VERPE; assay: Herbicidal post-emergence action, summary of Tables B1-B12; details: application rate of 1280 or 320 g of active ingredient per hectare; summary in words
Protocol: as §1, with “controls.” for “controls. For example, 100% activity=the plants have died, 0% activity=like control plants. Tables B1 to B12 below show the effects of selected compounds of the general formula (I) according to Table 1 on various harmful plants and an application rate corresponding to 1280 or 320 g/ha, which were obtained by the experimental procedure mentioned above.”
(§3) For example, 100% activity=the plants have died, 0% activity=like control plants.
Tables B1 to B12 below show the effects of selected compounds of the general formula (I) according to Table 1 on various harmful plants and an application rate corresponding to 1280 or 320 g/ha, which were obtained by the experimental procedure mentioned above.
As the results of Tables B1-B12 show, compounds no.

[11] = tested on: harmful plants ABUTH, AMARE, ECHCG, LOLRI, MATIN, POAAN, SETVI, STEME, ALOMY, DIGSA, KCHSC and VERPE; assay: Herbicidal pre-emergence action (test C), summary of Tables C1-C12; details: application rate of 1280 or 320 g of active ingredient per hectare; summary in words
Description: as §2, with “percentages.” for “percentages. For example, 100% activity=the plants have died, 0% activity=like control plants. Tables C1 to C12 below show the effects of selected compounds of the general formula (I) according to Table 1 on various harmful plants and an application rate corresponding to 1280 or 320 g/ha, which were obtained by the experimental procedure mentioned above.”
as §3
Tables C1 to C12 below show the effects of selected compounds of the general formula (I) according to Table 1 on various harmful plants and an application rate corresponding to 1280 or 320 g/ha, which were obtained by the experimental procedure mentioned above.
As the results of Tables C1-C12 show, compounds no.

[12] = tested on: Abutilon theophrasti (ABUTH); assay: Herbicidal post-emergence action (Table B5); details: rated visually after about 3 weeks, 100% = plants have died, 0% = like control plants
Protocol: as §1

[13] = tested on: Veronica persica (VERPE); assay: Herbicidal post-emergence action (Table B12); details: visual rating about 3 weeks after treatment, 100% = plants have died, 0% = like control plants
Protocol: as §1

[14] = tested on: Veronica persica (VERPE); assay: Herbicidal pre-emergence action, test C (Table C12); details: dosage 1280 g/ha, visual scoring vs untreated controls
Description: as §2

[15] = tested on: Digitaria sanguinalis (DIGSA); assay: Herbicidal pre-emergence action, test C (Table C10); details: dosage 1280 g/ha; visual scoring after about 3 weeks; 100% = plants have died, 0% = like control plants
Description: as §2

SMILES	Post-emergence action against Poa annua (POAAN) ([1]; 1280 g/ha) [%]	Post-emergence action against Amaranthus retroflexus (AMARE) ([2]; dosage 320 g/ha) [%]	Post-emergence action against Amaranthus retroflexus (AMARE) ([2]; dosage 1280 g/ha) [%]	Post-emergence action against Stellaria media (STEME) ([3]; dosage 1280 g/ha) [%]	Pre-emergence action against Poa annua (POAAN) ([4]; dosage 1280 g/ha) [%]	Pre-emergence action against Setaria viridis (SETVI) ([5]; dosage 1280 g/ha) [%]	Pre-emergence action against Abutilon theophrasti (ABUTH) ([6]; dosage 1280 g/ha) [%]	Pre-emergence action against Amaranthus retroflexus (AMARE) ([7]; dosage 320 g/ha) [%]	Pre-emergence action against Amaranthus retroflexus (AMARE) ([7]; dosage 1280 g/ha) [%]	Pre-emergence action against Stellaria media (STEME) ([9]; dosage 320 g/ha) [%]	Pre-emergence action against Stellaria media (STEME) ([9]; dosage 1280 g/ha) [%]	herbicidal activity against the harmful plants of Tables B1-B12 in post-emergence treatment [10]	herbicidal activity against the harmful plants of Tables C1-C12 in pre-emergence treatment [11]	Post-emergence action against Poa annua (POAAN) ([1]; 320 g/ha) [%]	Post-emergence action against Abutilon theophrasti (ABUTH) ([12]; 1280 g/ha) [%]	Post-emergence action against Veronica persica (VERPE) ([13]; dosage 1280 g/ha) [%]	Post-emergence action against Veronica persica (VERPE) ([13]; dosage 320 g/ha) [%]	further results
N#Cc1ccc(Oc2cccc(F)c2-c2cc(C(F)(F)F)on2)nc1 [Example 1-3]	100	100	100	90	90	100	100	100	100	90	100	very good herbicidal activity	very good herbicidal activity					Pre-emergence action against Setaria viridis (SETVI) ([5]; dosage 320 g/ha): 100%; Pre-emergence action against Abutilon theophrasti (ABUTH) ([6]; dosage 320 g/ha): 90%; Pre-emergence action against Matricaria inodora (MATIN) [8]: 90%
Fc1cccc(Oc2ncc(Cl)cc2Cl)c1-c1cc(C(F)(F)F)on1 [Example 1-4]				100					90			very good herbicidal activity	very good herbicidal activity					
Fc1cccc(Oc2ccc(Cl)cn2)c1-c1cc(C(F)F)on1 [Example 1-9]	100	100	100	100	100	100	100	100	100	100	100	very good herbicidal activity	very good herbicidal activity	100	100			Post-emergence action against Abutilon theophrasti (ABUTH) ([12]; 320 g/ha): 100%; Post-emergence action against Stellaria media (STEME) ([3]; dosage 320 g/ha): 100%; Pre-emergence action against Poa annua (POAAN) ([4]; dosage 320 g/ha): 100%; Pre-emergence action against Matricaria inodora (MATIN) [8]: 90%
Fc1cccc(Oc2ncc(C(F)(F)F)cc2Cl)c1-c1cc(C(F)F)no1 [Example 1-22]	100				100	90			100	90	100	very good herbicidal activity	very good herbicidal activity	100	100			
Cc1ccc(-c2cc(C(F)F)no2)c(Oc2ncc(Cl)cc2Cl)c1 [Example 1-28]	90	90	100	100		90					90	very good herbicidal activity	very good herbicidal activity			90		Pre-emergence action against Setaria viridis (SETVI) ([5]; dosage 320 g/ha): 90%
Cc1ccc(-c2cc(C(F)F)no2)c(Oc2ncccc2F)c1 [Example 1-33]					90	100	90			90	100	very good herbicidal activity	very good herbicidal activity			100	90	Pre-emergence action against Veronica persica (VERPE) [14]: 90%
FC(F)c1cc(-c2ccc(Br)cc2Oc2ccc(Cl)cn2)on1 [Example 1-62]	100	100	100	100	100	100	90	90	100			very good herbicidal activity	very good herbicidal activity	100	100	100	100	Post-emergence action against Abutilon theophrasti (ABUTH) ([12]; 320 g/ha): 100%; Pre-emergence action against Poa annua (POAAN) ([4]; dosage 320 g/ha): 90%; Pre-emergence action against Digitaria sanguinalis (DIGSA) [15]: 100%; Pre-emergence action against Veronica persica (VERPE) [14]: 90%
Cn1nc(-c2cc(F)ccc2Oc2ccc(Cl)cn2)cc1C(F)F [Example 1-65]		100	100		100			90	100			very good herbicidal activity	very good herbicidal activity			100	100	

Reference: patent US12052991B2, “Substituted pyridinyloxybenzenes and salts thereof and use thereof as herbicidal agents” (Bayer Aktiengesellschaft, priority 2018, dated 2024)
